Values quoted from earlier work in patent US11471478B2, “Use of cyclodextrins in diseases and disorders involving phospholipid dysregulation” (priority 2017, dated 2022).
Marks after values point to notes of the source that are not given here.

Tests used:
BBB = details: cited from earlier work
[1] = system: fibroblasts of lysosomal storage diseases; details: about 6 mM α-CD, about 8 mM HP-β-CD; cited from earlier work
[2] = system: HeLa cells transfected with α-synuclein; details: 20 mM for 1 hr; cited from earlier work
[3] = target: T1, breast cancer resistance protein (BCRP) (Homo sapiens, UniProt Q9UNQ0); details: cited from earlier work
T1 sequence (Q9UNQ0 1-655): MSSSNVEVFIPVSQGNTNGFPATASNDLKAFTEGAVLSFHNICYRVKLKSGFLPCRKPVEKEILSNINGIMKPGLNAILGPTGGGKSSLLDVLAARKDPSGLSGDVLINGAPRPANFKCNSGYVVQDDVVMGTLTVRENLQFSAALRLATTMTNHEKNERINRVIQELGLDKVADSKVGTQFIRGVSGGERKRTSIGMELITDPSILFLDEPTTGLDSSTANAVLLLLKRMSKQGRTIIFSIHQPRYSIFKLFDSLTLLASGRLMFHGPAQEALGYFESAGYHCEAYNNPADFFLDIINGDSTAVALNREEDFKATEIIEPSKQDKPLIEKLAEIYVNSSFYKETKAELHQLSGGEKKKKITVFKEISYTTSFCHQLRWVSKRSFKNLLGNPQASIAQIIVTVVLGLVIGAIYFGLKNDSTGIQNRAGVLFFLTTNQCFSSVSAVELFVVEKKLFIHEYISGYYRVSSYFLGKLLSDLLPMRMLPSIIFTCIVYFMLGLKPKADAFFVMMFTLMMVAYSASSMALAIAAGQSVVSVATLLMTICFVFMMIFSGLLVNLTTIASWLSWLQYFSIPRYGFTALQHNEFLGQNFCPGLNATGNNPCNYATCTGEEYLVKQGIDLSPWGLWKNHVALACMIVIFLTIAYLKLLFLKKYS

[4] = i.v.; cited from earlier work
whole blood = details: cited from earlier work
rats = details: rat, in vivo, iv; cited from earlier work
mice/rats = details: in vivo; cited from earlier work
keratinocytes = details: cited from earlier work

CN1CCCC1c1cccnc1 (centres unmarked) [nicotine]
transported through the BBB (BBB; after 2 h of incubation, in vitro): 96%

methyl-β-cyclodextrin [M-β-CD]
reduction of lysosomal storage [1]: most effective cyclodextrin
co-location of α-synuclein with the cell membrane [2]: dramatically reduced
decrease in activity of BCRP [3]: 40%

OC[C@H]1O[C@@H]2O[C@H]3[C@H](O)[C@@H](O)[C@@H](O[C@H]4[C@H](O)[C@@H](O)[C@@H](O[C@H]5[C@H](O)[C@@H](O)[C@@H](O[C@H]6[C@H](O)[C@@H](O)[C@@H](O[C@H]7[C@H](O)[C@@H](O)[C@@H](O[C@H]8[C@H](O)[C@@H](O)[C@@H](O[C@H]1[C@H](O)[C@H]2O)O[C@@H]8CO)O[C@@H]7CO)O[C@@H]6CO)O[C@@H]5CO)O[C@@H]4CO)O[C@@H]3CO [β-CD, beta-cyclodextrin, reference compound]
half-life (t1/2) after i.v. in rats [4]: 20 min
whole blood TD50 (whole blood): 3.6 mM/L
i.v. toxicity, 1 g/kg daily (rats): all died ≤ 4 d
LD50 i.v./i.p. in mice/rats (mice/rats): 0.8/1.0 ^4) g/kg
Transport across BBB (BBB; 2 h, 1 mM): 26.7 (1 mM) %
toxicity on the BBB model (BBB): similarly safe
caspase-dependent apoptotic cell death (keratinocytes): induces caspase-dependent apoptotic cell death
